# Source: US10857128B2, “Methods and compositions for treating inflammatory diseases” (Helmholtz Zentrum München Deutsches Forschungszentrum für …, priority 2017, dated 2020)
# Columns and labels:
# [1] = Oral supplementation of mice with D-tryptophan in drinking water: serum levels and tolerability; type: in vivo, Balb/c mice; conditions: 14 days
# Experimental: Enantiomeric separation of D-Tryptophan in murine sera. The investigator (C.M.) was blinded to the murine intervention groups. Due to the abundance of interfering proteins a protein precipitation was done. For this purpose the sera were thawed on ice and 20 μL of each sample were vigorously shaken with 80 μL 4° C. methanol (Chromasolve, Fluka, St. Louis, USA) and centrifuged (15,000×g at 4° C. for 15 min). The supernatants were taken, evaporated and resolved in water before injection. The derivation was performed as described for bacterial supernatants with some modifications as recently published (Müller et al., J Chromatogr A. 2014 Jan. 10; 1324:109-14). For quantification human serum was spiked with different concentrations (0.005-0.15 μg/mL) of D-Tryptophan and randomly analyzed.
# Animals and oral supplementation with D-tryptophan. […]
# gut microbiota = test: Gut microbial diversity by 16S rRNA barcoding of caecum samples; type: in vivo, Balb/c mice
# Experimental: Bacterial 16S rRNA gene amplification and diversity analysis. Diversity analysis of 16S rRNA genes was performed by amplicon sequencing. In the first PCR reaction, bacterial genomic DNA was subjected to 16S rRNA gene amplifications using the primer S-D-Bact-0785-a-S-18 [5′-GGMTTAGATACCCBDGTA-3′] (SEQ ID NO: 1) and S-*-Univ-1100-a-A-15 [5′-[…]-3′] (SEQ ID NO: 2) as already mentioned. The reaction mixture of 25 μL in total was composed of 5 ng×μL-1 template DNA, 10 μM of each primer, 10 mM dNTPs (Fermentas, Vilnius, Lithuania), 5% of dimethyl sulfoxide (Sigma-Aldrich, St. Louis, USA), 5 U×μL-1 of FastStart High Fidelity Polymerase (Roche Diagnostics, Mannheim, Germany), 10× FastStart Buffer, and nuclease-free water (Life Technologies, Carlsbad, Calif., USA). The PCR started with an initialization at 95° C. for 5 min, followed by 28 cycles of denaturation at 94° C. for 45 sec, annealing at 44° C. for 45 sec, and elongation at 72° C. for 45 sec. A final elongation step at 72° C. for 5 min completed the PCR reaction. To minimize contamination with primer dimers, generated fragments were cut out of the gel after standard agarose gel electrophoresis and purified with the NucleoSpin Gel and PCR Clean-up Kit (Macherey-Nagel, Düren, Germany).
# During the second PCR, Illumina sequencing adapters as well as dual indices were attached to the purified amplicons using the Nextera XT Index Kit (Illumina, San Diego, Calif., USA). The reaction volume was 50 μL in total and contained 5 μL of genomic DNA, 5 μL of each Nextera XT Index Primer, 25 μl 2× KAPA HiFi HotStart ReadyMix (Kapa Biosystems, Wilmington, Mass., USA), and 10 μL of nuclease-free water (Life Technologies, Carlsbad, Calif., USA). The PCR reaction was performed according to the following thermal profile: 95° C. for 3 min, followed by 8 cycles of 95° C. for 30 sec, 55° C. for 30 sec, 72° C. for 30 sec, and finalized by 72° C. for 5 min. The PCR products were cleaned up with the Agencourt AMPure XP system (Beckman Coulter, Brea, Calif., USA), DNA was quantified and the DNA quality was controlled using the 2100 Bioanalyzer Instrument (Agilent Technologies, Santa Clara, Calif., USA), and sequenced with the MiSeq instrument (Illumina, San Diego, Calif., USA).
# For testing prevention of AAI, mice received 50 mM D-tryptophan starting at least three days before the first sensitization until sacrificing on day 25. For microbiome analyses, the caecum was cut off and immediately stored at −80° C. until further processing.
# Microbial Diversity. Bacterial diversity was assessed by molecular barcoding of 16S rRNA genes in caecum samples of six animals per group. To this end, DNA was directly extracted from the caecum using a kit based protocol (PowerSoil DNA Isolation Kit, MO BIO Laboratories, Carlsbad, Calif., USA). 315 bp fragments were amplified within the variable region V5 and V6 of the 16S rRNA gene using S-D-Bact-0785-a-S-18[5′-GGMTTAGATACCCBDGTA-3′] (SEQ ID NO: 1) and S-*-Univ-1100-a-A-15 [5′-[…]-3′] (SEQ ID NO: 2) as primers (Klindworth et al., Nucleic Acids Res. 2013 Jan. 7; 41(1):el). Sequencing of amplicons was performed on the Illumina MiSeq platform (Illumina, San Diego, Calif., USA) using paired end technology (see section “Bacterial 16S rRNA gene amplification and diversity analysis” herein). Sequences are deposited in NCBI accession number PRJNA304109.
# Reads were analyzed with the software package QIIME. Operational taxonomic units (OTUs) were picked within the 13_8 version of the Greengenes reference database (McDonald et al., ISME J. 2012 March; 6(3):610-8) at a similarity level of 95% sequence identity. Sequences were subsampled to 15000 reads per sample, which reflects the number of reads obtained in the sample with the lowest number of reads after quality control. This number was still sufficient to reach a plateau when collectors' curves were calculated on the basis of OTU95. […]
structure (smiles),measurement,setting,value
N[C@H](Cc1c[nH]c2ccccc12)C(=O)O [D-tryptophan],changes in behavior or body weight,"[1]; 1.8 or 18 mg/dL in drinking water, compared to controls",No changes
same,D-tryptophan serum levels,[1]; oral 0.9 mg/day in drinking water,increased D-tryptophan serum levels significantly
same,impact on microbial community composition,gut microbiota; AAI mice,significant
same,abundance of Ruminococcaceae,gut microbiota; AAI mice with D-Trp,8.9%
same,bacterial diversity (alpha-diversity) of AAI mice,"gut microbiota; AAI mice, 50 mM in drinking water",increased
same,abundance of Rikenellaceae,gut microbiota; D-Trp groups,1.1-2.0%
same,abundance of Lachnospiraceae,gut microbiota; D-tryptophan treated AAI mice,20.6%
same,abundance of Lachnospiraceae,gut microbiota; D-tryptophan treated mice without AAI,27.5%
same,relative abundance of Odoribacteraceae,gut microbiota; both groups of supplemented animals,3.9%
same,members of the S24-7 family,"gut microbiota; mouse, in vivo",neither affected
